23 compounds from PubChem BioAssay AID330 (DTP/NCI, 2004) can be followed below.

The experiment concerns P388 leukemia ip, CD2F1 mice, survival T/C. Put plainly: NCI In Vivo Anticancer Drug Screen. Data for tumor model P388 Leukemia (intraperitoneal) in CD2F1 (CDF1) mice. The following applies: endpoint: median survival time, higher = longer survival. The gist of the method:
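Mice carrying the transplanted tumor received test compound or vehicle. Survival was recorded in each group, and the value is the treated-group measurement divided by that of the vehicle-treated control group.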

Where [1] appears, read: dose: 60.0 mg/kg/injection, schedule: Q01DX005 (ip), vehicle: saline with Tween-80.
[2] abbreviates: dose: 120.0 mg/kg/injection, schedule: Q01DX005 (ip), vehicle: saline with Tween-80.
[3] abbreviates: dose: 240.0 mg/kg/injection, schedule: Q01DX005 (ip), vehicle: saline with Tween-80.
[4] abbreviates: dose: 50.0 mg/kg/injection, schedule: Q01DX005 (ip), vehicle: Klucel (hydroxypropylcellulose) (HPC).
The mark [5] stands for this setting: dose: 100.0 mg/kg/injection, schedule: Q01DX005 (ip), vehicle: Klucel (hydroxypropylcellulose) (HPC).
Setting [6] is: dose: 200.0 mg/kg/injection, schedule: Q01DX005 (ip), vehicle: Klucel (hydroxypropylcellulose) (HPC).
The mark [7] stands for this setting: dose: 100.0 mg/kg/injection, schedule: Q01DX009 (ip), vehicle: saline with Tween-80.
The mark [8] stands for this setting: dose: 50.0 mg/kg/injection, schedule: Q01DX009 (ip), vehicle: saline with Tween-80.
[9] abbreviates: dose: 50.0 mg/kg/injection, schedule: Q01DX005 (ip), vehicle: saline with Tween-80.

SMILES strings stand for the structures. Toxic doses and inconclusive results are not listed.

For the compound `[CH2+][B-]1(C)n2cc(Br)c[n+]2[B-](C)(C)[n+]2cc(Br)cn21`, the T/C reads like this: under setting [1], 102 % of control; under setting [2], 103 % of control; under setting [3], 103 % of control.
As to `O=C1CC2COc3ccccc3C2=NN1c1ccccc1` (stereo unspecified), the T/C was 105 % of control under setting [1], 94 % of control under setting [2] and 91 % of control under setting [3].
The matching figures for `CCOC(=O)c1ccc(NC(=O)Nc2ccccc2F)cc1`: 95 % of control, 95 % of control and 104 % of control.
`FC(F)(F)S.[Hg]`: the T/C was 95 % of control (dose: 2.5 mg/kg/injection, schedule: Q04DX003 (ip), vehicle: saline); 100 % of control (dose: 5.0 mg/kg/injection, schedule: Q04DX003 (ip), vehicle: saline); 95 % of control (dose: 10.0 mg/kg/injection, schedule: Q04DX003 (ip), vehicle: saline).
As for `COc1ccc(-c2cc(=O)c3c(O)cc(O)c(-c4cc(-c5cc(=O)c6c(O)cc(OC)cc6o5)ccc4OC)c3o2)cc1`, the T/C under setting [4] was 105 % of control, the T/C under setting [5] was 99 % of control and the T/C under setting [6] is 88 % of control.
With `FC(F)(F)C1=C(C(F)(F)F)OP2(Oc3ccccc3)(O1)Oc1ccccc1O2`, the T/C by setting is: (dose: 25.0 mg/kg/injection, schedule: Q04DX003 (ip), vehicle: suspension in saline) 102 % of control; (dose: 50.0 mg/kg/injection, schedule: Q04DX003 (ip), vehicle: suspension in saline) 101 % of control; (dose: 100.0 mg/kg/injection, schedule: Q04DX003 (ip), vehicle: suspension in saline) 97 % of control.
For the compound `C[CH2][Sn]([CH2]C)([CH2]C(=O)OC)[CH2]C(=O)OC`, the T/C reads like this: (dose: 9.0 mg/kg/injection, schedule: Q03HX015 (ip), vehicle: saline with Tween-80) 153 % of control; (dose: 12.5 mg/kg/injection, schedule: Q01DX009 (ip), vehicle: saline with Tween-80) 170 % of control; (dose: 18.0 mg/kg/injection, schedule: Q01DX005 (ip), vehicle: saline with Tween-80) 150 % of control; under setting [7], 174 % of control.
`CC(=O)ON=C1C=CC(=C(C#N)c2ccccc2)C=C1`: the T/C is, setting by setting: under setting [8], 104 % of control; under setting [7], 122 % of control.
Consider `O=S(=O)(c1ccccc1)C(SC(=S)Sc1ccccc1)Sc1ccccc1` (stereo unspecified), for which the T/C was 104 % of control (dose: 12.5 mg/kg/injection, schedule: Q01DX009 (ip), vehicle: saline); 107 % of control (dose: 25.0 mg/kg/injection, schedule: Q01DX009 (ip), vehicle: saline); 114 % of control under setting [8]; 96 % of control (dose: 50.0 mg/kg/injection, schedule: Q01DX009 (ip), vehicle: saline).
In the case of `Cc1nnc(NC(=O)c2cc(=O)c3cc(Cl)ccc3o2)s1`, the T/C runs as follows: under setting [4], 100 % of control; under setting [5], 106 % of control; under setting [6], 100 % of control.
For `Cc1ccc(-n2c3nc(=O)n(C)c(=O)c-3nc3ccccc32)cc1C`, the T/C reads like this: (dose: 100.0 mg/kg/injection, schedule: Q01DX001 (ip), vehicle: Klucel (hydroxypropylcellulose) (HPC)) 95 % of control; (dose: 200.0 mg/kg/injection, schedule: Q01DX001 (ip), vehicle: Klucel (hydroxypropylcellulose) (HPC)) 92 % of control.
For the compound `O=c1c(Br)c(Cl)nc2ccccn12`, the T/C runs as follows: (dose: 100.0 mg/kg/injection, schedule: Q01DX001 (ip), vehicle: saline with Tween-80) 90 % of control; (dose: 200.0 mg/kg/injection, schedule: Q01DX001 (ip), vehicle: saline with Tween-80) 100 % of control; (dose: 400.0 mg/kg/injection, schedule: Q01DX001 (ip), vehicle: saline with Tween-80) 95 % of control.
On to `COC(=O)C([NH-])c1ccccc1.COC(=O)C([NH-])c1ccccc1.[Cl][Pd][Cl]` (stereo unspecified), for which the T/C by setting is: (dose: 100.0 mg/kg/injection, schedule: Q04DX003 (ip), vehicle: saline) 108 % of control; (dose: 200.0 mg/kg/injection, schedule: Q04DX003 (ip), vehicle: saline) 104 % of control; (dose: 400.0 mg/kg/injection, schedule: Q04DX003 (ip), vehicle: saline) 103 % of control.
With `CCN1/C(=C/C2=C([O-])C(=C\c3ccc4ccccc4[n+]3CC)/C2=O)C=Cc2ccccc21`, the T/C is, setting by setting: (dose: 60.0 mg/kg/injection, schedule: Q01DX005 (ip), vehicle: Klucel (hydroxypropylcellulose) (HPC)) 101 % of control; (dose: 120.0 mg/kg/injection, schedule: Q01DX005 (ip), vehicle: Klucel (hydroxypropylcellulose) (HPC)) 97 % of control; (dose: 240.0 mg/kg/injection, schedule: Q01DX005 (ip), vehicle: Klucel (hydroxypropylcellulose) (HPC)) 86 % of control.
Turning to `CCSC(C(OC(C)=O)C(OC(C)=O)C(OC(C)=O)C(COC(C)=O)OC(C)=O)n1cnc2c(Cl)ncnc21` (stereo unspecified), the T/C is 100 % of control under setting [9]; 90 % of control (dose: 100.0 mg/kg/injection, schedule: Q01DX005 (ip), vehicle: saline with Tween-80); 96 % of control (dose: 200.0 mg/kg/injection, schedule: Q01DX005 (ip), vehicle: saline with Tween-80).
For the compound `CCN(CC)CCCN(C)Cc1c(-c2ccccc2)oc(-c2ccccc2)c1Cl`, the T/C runs as follows: (dose: 6.25 mg/kg/injection, schedule: Q01DX005 (ip), vehicle: saline with Tween-80) 106 % of control; (dose: 12.5 mg/kg/injection, schedule: Q01DX005 (ip), vehicle: saline with Tween-80) 106 % of control; (dose: 25.0 mg/kg/injection, schedule: Q01DX005 (ip), vehicle: saline with Tween-80) 107 % of control; under setting [9], 104 % of control.
As to `CN(C)c1nc(O)cc(=O)[nH]1`, the T/C runs as follows: under setting [8], 106 % of control; under setting [7], 100 % of control; (dose: 200.0 mg/kg/injection, schedule: Q01DX009 (ip), vehicle: saline with Tween-80) 89 % of control.
Take `CN1c2ccccc2C(=O)Nc2cnc(Cl)nc21`: the T/C is, setting by setting: (dose: 25.0 mg/kg/injection, schedule: Q01DX005 (ip), vehicle: Klucel (hydroxypropylcellulose) (HPC)) 94 % of control; under setting [4], 108 % of control.
In the case of `CCCCCSC1=NC(c2ccc(C)cc2)(c2ccc(C)cc2)C(=O)N1`, the T/C reads like this: (dose: 50.0 mg/kg/injection, schedule: Q01DX005 (ip), vehicle: Klucel + Tween-80) 100 % of control; (dose: 100.0 mg/kg/injection, schedule: Q01DX005 (ip), vehicle: Klucel + Tween-80) 100 % of control; (dose: 200.0 mg/kg/injection, schedule: Q01DX005 (ip), vehicle: Klucel + Tween-80) 98 % of control.
As for `CCOc1c(N=Nc2ccccc2OC)c(C)nn1C(=S)SC`, the T/C runs as follows: (dose: 15.0 mg/kg/injection, schedule: Q01DX005 (ip), vehicle: Klucel + Tween-80) 92 % of control; (dose: 30.0 mg/kg/injection, schedule: Q01DX005 (ip), vehicle: Klucel + Tween-80) 92 % of control; (dose: 60.0 mg/kg/injection, schedule: Q01DX005 (ip), vehicle: Klucel + Tween-80) 90 % of control.
For `CCOC(=O)CNC(=O)C(CSSCC(NC(=O)OCc1ccccc1)C(=O)OC)NC(=O)C(NC(=O)OCc1ccccc1)C(C)C` (stereo unspecified), the T/C was 100 % of control under setting [4], 98 % of control under setting [5] and 95 % of control under setting [6].
As to `CC(=O)N(C)N(Cc1ccc([N+](=O)[O-])cc1)C(C)=O`, the T/C reads like this: (dose: 25.0 mg/kg/injection, schedule: Q01DX009 (ip), vehicle: other) 95 % of control; (dose: 50.0 mg/kg/injection, schedule: Q01DX009 (ip), vehicle: other) 102 % of control; (dose: 100.0 mg/kg/injection, schedule: Q01DX009 (ip), vehicle: other) 93 % of control; (dose: 200.0 mg/kg/injection, schedule: Q01DX009 (ip), vehicle: other) 93 % of control; (dose: 400.0 mg/kg/injection, schedule: Q01DX009 (ip), vehicle: other) 89 % of control.
On to `CC(=O)C1C(C=C(C)C)C1(C)C` (stereo unspecified), for which the T/C reads like this: (dose: 100.0 mg/kg/injection, schedule: Q04DX002 (ip), vehicle: saline with Tween-80) 96 % of control; (dose: 200.0 mg/kg/injection, schedule: Q04DX002 (ip), vehicle: saline with Tween-80) 106 % of control; (dose: 400.0 mg/kg/injection, schedule: Q04DX002 (ip), vehicle: saline with Tween-80) 101 % of control.
